Laboratory results as given in paper PMC9776540, “Therapeutic Potential of a Water-Soluble Silver-Diclofenac Coordination Polymer on 3D Pancreatic Cancer Spheroids” (Journal of Medicinal Chemistry, 2022).

Experiments:
HaCat [1] = assay: MTT cytotoxicity assay (IC50); type: cell-based, human; settings: HaCat normal cells, after 72 h incubation, MTT, vs untreated control cells; read-out: IC50
Procedure: (§1) MCF7 cell line (human breast adenocarcinoma, morphology: epithelial-like, ATCC: HTB-22), A549 cell […]
(§2) keratinocyte, morphology: epidermal, CSL Cell Lines Service GmbH); were cultured in Dulbecco’s Modified Eagle’s Medium (DMEM, Corning) with phenol red, supplemented with 10% fetal bovine serum (FBS) and with 1% streptomycin/penicillin. […]
(§3) from metastatic site: brain, ATCC: HTB-81) and MCR-5 cell line (primary line of human pulmonary […]
(§4) 10% fetal bovine serum (FBS). Cultures were incubated at 37 °C under a humidified atmosphere containing 5% CO2. Cells were transferred using a solution containing 0.05% trypsin and 0.5 mM EDTA.
(§5) All media and other ingredients were purchased from ALAB, Poland.
(§6) Cytotoxicity was assessed by MTT assay performed according the protocols described elsewhere.S1 In brief, 1×10^4 cells per well, seeded in 96-well flat bottom microtiter plate, were incubated with the tested compounds (in the appropriate media) at various range of concentrations for 24 h. After that time, solutions of compounds were washed out, cells were washed three times with PBS and fresh medium was applied. After next 72 h cell viability was determined using the Hill equation (Origin 9.0) with regard to the untreated cells (control), where y0 – untreated cell control (which was set to 100% viability), y100 – a lysis control (where the cells were treated with 0.5% triton X-100 was set to 0% […]
(§7) [c] at which the viability of the cells reaches 50%, H – the Hill coefficient (describing cooperativity):
(§8) Each compound concentration was tested in five replicates and repeated at least three times.
(§9) Determined values of IC50 are given as mean + S.D. (Standard Deviation).
(§10) Cisplatin was tested as a reference anticancer drug. […]

PANC-1 [2] = assay: MTT cytotoxicity assay (IC50); type: cell-based, human; settings: PANC-1, after 72 h incubation, MTT, vs untreated control cells; read-out: IC50
Procedure: as §1, §2, §3, §4, §5, §6, §7, §8, §9, §10

DU-145 [3] = assay: MTT cytotoxicity assay (IC50); type: cell-based, human; settings: DU-145, after 72 h incubation, MTT, vs untreated control cells; read-out: IC50
Procedure: as §1, §2, §3, §4, §5, §6, §7, §8, §9, §10

MRC5 = assay: MTT cytotoxicity assay (IC50); type: cell-based, human; settings: MRC5 normal cells, after 72 h incubation, MTT, vs untreated control cells; read-out: IC50
Procedure: as §1, §2, §3, §4, §5, §6, §7, §8, §9, §10

MCF7 = assay: MTT cytotoxicity assay (IC50); type: cell-based, human; settings: MCF7, after 72 h incubation, MTT, vs untreated control cells; read-out: IC50
Procedure: as §1, §2, §3, §4, §5, §6, §7, §8, §9, §10

A549 [4] = assay: MTT cytotoxicity assay (IC50); type: cell-based, human; settings: A549, after 72 h incubation, MTT, vs untreated control cells; read-out: IC50
Procedure: as §1, §2, §3, §4, §5, §6, §7, §8, §9, §10

human cell lines = settings: up to a concentration of 100 μM
Procedure: as §1, §2, §3, §4, §5
as §6, with “After that time, solutions of compounds were washed out, cells were washed three times with PBS and fresh medium was applied.” left out
Determined values of IC50 are given as mean + S.D. (Standard Deviation). […]

HaCat [5] = assay: MTT survival test, surviving fraction (Table S3); type: cell-based, human
Procedure: (§11) 24, and 72 h. After each incubation time, the cells were washed with PBS. Then, fresh medium (supplemented with 10% FSB) was added, and the cells were incubated under standard conditions for another 24 h (6h + 24h, 24h + 24h, 72h + 24h). After this time, the MTT survival test was done. Surviving fraction given in % was estimated with relation to untreated cells. In the case of 6h + 24h and 24h + 24h approaches, the cells were seeded at 10 000 cells per well, while in the case of 72h + 24h at […]

PANC-1 [6] = assay: MTT survival test, surviving fraction (Table S3); type: cell-based, human
Procedure: as §11

DU-145 [7] = assay: MTT survival test, surviving fraction (Table S3); type: cell-based, human
Procedure: as §11

MCF-7 = assay: MTT survival test, surviving fraction (Table S3); type: cell-based, human
Procedure: as §11

A549 [8] = assay: MTT survival test, surviving fraction (Table S3); type: cell-based, human
Procedure: as §11

N.N.[Cl][Pt][Cl] [cisplatin]
IC50 (HaCat [1]): 26.4 ± 2.7 µM
IC50 (PANC-1 [2]): 12.5 ± 1.3 µM
IC50 (DU-145 [3]): > 100 µM
IC50 (MRC5): 31.5 ± 4.1 µM
IC50 (MCF7): 50.9 ± 7.6 µM
IC50 (A549 [4]): > 100 µM

O=[N+]([O-])[O-].[Ag+] [AgNO3, silver(I) nitrate]
cytotoxic effect of free Ag(I) salt (human cell lines): does not cause significant toxic effects
surviving fraction (HaCat [5]; 6h + 24h, dil. 10 000x (stocks: diclofenac 0.918, PTA 0.483, AgNO3 0.326 mg/mL)): 88.1 ± 4.2%
surviving fraction (HaCat [5]; 6h + 24h, dil. 1000x (stocks: diclofenac 0.918, PTA 0.483, AgNO3 0.326 mg/mL)): 76.7 ± 6.8%
surviving fraction (HaCat [5]; 24h + 24h, dil. 10 000x (stocks: diclofenac 0.918, PTA 0.483, AgNO3 0.326 mg/mL)): 72.7 ± 8.1%
surviving fraction (HaCat [5]; 24h + 24h, dil. 1000x (stocks: diclofenac 0.918, PTA 0.483, AgNO3 0.326 mg/mL)): 41.6 ± 6.9%
surviving fraction (HaCat [5]; 72h + 24h, dil. 10 000x (stocks: diclofenac 0.918, PTA 0.483, AgNO3 0.326 mg/mL)): 70.5 ± 5.8%
surviving fraction (HaCat [5]; 72h + 24h, dil. 1000x (stocks: diclofenac 0.918, PTA 0.483, AgNO3 0.326 mg/mL)): 65.2 ± 6.3%
surviving fraction (PANC-1 [6]; PANC-1, 6h + 24h, dil. 10 000x (stocks: diclofenac 0.918, PTA 0.483, AgNO3 0.326 mg/mL)): 76.2 ± 7.4%
surviving fraction (PANC-1 [6]; PANC-1, 6h + 24h, dil. 1000x (stocks: diclofenac 0.918, PTA 0.483, AgNO3 0.326 mg/mL)): 65.89 ± 4.6%
surviving fraction (PANC-1 [6]; PANC-1, 24h + 24h, dil. 10 000x (stocks: diclofenac 0.918, PTA 0.483, AgNO3 0.326 mg/mL)): 65.8 ± 6.6%
surviving fraction (PANC-1 [6]; PANC-1, 24h + 24h, dil. 1000x (stocks: diclofenac 0.918, PTA 0.483, AgNO3 0.326 mg/mL)): 44.2 ± 9.2%
surviving fraction (PANC-1 [6]; PANC-1, 72h + 24h, dil. 10 000x (stocks: diclofenac 0.918, PTA 0.483, AgNO3 0.326 mg/mL)): 65.8 ± 6.1%
surviving fraction (PANC-1 [6]; PANC-1, 72h + 24h, dil. 1000x (stocks: diclofenac 0.918, PTA 0.483, AgNO3 0.326 mg/mL)): 55.4 ± 6.7%
surviving fraction (DU-145 [7]; Du-145, 6h + 24h, dil. 10 000x (stocks: diclofenac 0.918, PTA 0.483, AgNO3 0.326 mg/mL)): 74.5 ± 8.8%
surviving fraction (DU-145 [7]; Du-145, 6h + 24h, dil. 1000x (stocks: diclofenac 0.918, PTA 0.483, AgNO3 0.326 mg/mL)): 62.87 ± 5.9%
surviving fraction (DU-145 [7]; Du-145, 24h + 24h, dil. 10 000x (stocks: diclofenac 0.918, PTA 0.483, AgNO3 0.326 mg/mL)): 58.8 ± 7.3%
surviving fraction (DU-145 [7]; Du-145, 24h + 24h, dil. 1000x (stocks: diclofenac 0.918, PTA 0.483, AgNO3 0.326 mg/mL)): 36.7 ± 7.1%
surviving fraction (DU-145 [7]; Du-145, 72h + 24h, dil. 10 000x (stocks: diclofenac 0.918, PTA 0.483, AgNO3 0.326 mg/mL)): 56.1 ± 5.9%
surviving fraction (DU-145 [7]; Du-145, 72h + 24h, dil. 1000x (stocks: diclofenac 0.918, PTA 0.483, AgNO3 0.326 mg/mL)): 42.8 ± 5.9%
surviving fraction (MCF-7; MCF-7, 6h + 24h, dil. 10 000x (stocks: diclofenac 0.918, PTA 0.483, AgNO3 0.326 mg/mL)): 59.2 ± 8.2%
surviving fraction (MCF-7; MCF-7, 6h + 24h, dil. 1000x (stocks: diclofenac 0.918, PTA 0.483, AgNO3 0.326 mg/mL)): 62.7 ± 6.3%
surviving fraction (MCF-7; MCF-7, 24h + 24h, dil. 10 000x (stocks: diclofenac 0.918, PTA 0.483, AgNO3 0.326 mg/mL)): 62.1 ± 5.5%
surviving fraction (MCF-7; MCF-7, 24h + 24h, dil. 1000x (stocks: diclofenac 0.918, PTA 0.483, AgNO3 0.326 mg/mL)): 38.5 ± 7.3%
surviving fraction (MCF-7; MCF-7, 72h + 24h, dil. 10 000x (stocks: diclofenac 0.918, PTA 0.483, AgNO3 0.326 mg/mL)): 56.8 ± 6.2%
surviving fraction (MCF-7; MCF-7, 72h + 24h, dil. 1000x (stocks: diclofenac 0.918, PTA 0.483, AgNO3 0.326 mg/mL)): 36.0 ± 8.4%
surviving fraction (A549 [8]; A549, 6h + 24h, dil. 10 000x (stocks: diclofenac 0.918, PTA 0.483, AgNO3 0.326 mg/mL)): 68.1 ± 6.2%
surviving fraction (A549 [8]; A549, 6h + 24h, dil. 1000x (stocks: diclofenac 0.918, PTA 0.483, AgNO3 0.326 mg/mL)): 48.9 ± 6.5%
surviving fraction (A549 [8]; A549, 24h + 24h, dil. 10 000x (stocks: diclofenac 0.918, PTA 0.483, AgNO3 0.326 mg/mL)): 57.4 ± 3.8%
surviving fraction (A549 [8]; A549, 24h + 24h, dil. 1000x (stocks: diclofenac 0.918, PTA 0.483, AgNO3 0.326 mg/mL)): 31.2 ± 5.5%
surviving fraction (A549 [8]; A549, 72h + 24h, dil. 10 000x (stocks: diclofenac 0.918, PTA 0.483, AgNO3 0.326 mg/mL)): 55.8 ± 8.1%
surviving fraction (A549 [8]; A549, 72h + 24h, dil. 1000x (stocks: diclofenac 0.918, PTA 0.483, AgNO3 0.326 mg/mL)): 34.1 ± 5.3%
